Experimental data: publication PMC3749181, “Rapid Identification of Antifungal Compounds against Exserohilum rostratum Using High Throughput Drug Repurposing Screens” (PLoS ONE, 2013)

tested on: SH-SY5Y cells; test: SH-SY5Y cytotoxicity counter-screen (ATP content assay); format: cell-based, Human; conditions: Table S1; 46 µM Amphotericin B = 100%; Inact. = no significant activity at 46 µM
Method: Human neuroblastoma SH-SY5Y cell line (Catalog No. CRL-2266) was purchased from ATCC (Manassas, VA). SH-SY5Y cell line was cultured in 175-cm^2 tissue culture flasks (Costar, Cambridge, MA) with 30 ml of growth medium at 37°C in a 5% CO2 humidified atmosphere. Growth medium was made with Dulbecco's Modified Eagle Medium: Nutrient Mixture F-12 with 10% fetal bovine serum (FBS). Growth medium was replaced every other day and cells were passed at 75% confluence.
(§1) The ATPLite assay kit, consisting of luciferase/luciferin and detergent, was used to quantitate cellular ATP levels as a marker for cell viability (Table 1). For assay development, hyphal fragments or conidia in PBS were plated in a seeding density of 3,750, 7,500 and 15,000 cellular particles/well with a final volume of 5 µl/well using the Multidrop-Combi dispenser in white 1536-well plates. Conidia or hyphae fragments were incubated for 24 h at 37°C in a 5% CO2 humidified atmosphere. ATPLite detection reagents were added at 4 µl/well. The assay plates were incubated at room temperature for 15 minutes before reading luminescence intensity on a ViewLux plate reader (Perkin Elmer, Waltham, MA). Conidia suspended in RPMI medium were inoculated at concentrations of 62.5, 125 and 250 conidia/well with a final volume of 5 µl/well in white 1536-well plates. The conidia assay was developed and optimized in the same way as the hyphal assay.
Two small known compound libraries including the LOPAC (1280 compounds) and approved drugs (4096 compounds) were screened in parallel using the above optimized assays for hyphae and conidia in 1536-well plates (Fig. 4). […] A mammalian SH-SY5Y cell line was used in parallel as a counter-screen with the same ATP content assay kit to assess the specificity of these compounds for E. rostratum.

Row | SMILES | SH-SY5Y % M. Res.
1 | O=P(O)(O)OC(Cn1cncn1)(Cn1cncn1)c1ccc(F)cc1F [Fosfluconazole] | Inact.
2 | Cc1cccc(N(C)C(=S)Oc2ccc3c(c2)CCC3)c1 [Tolindate] | Inact.
3 | Sc1nc2ccccc2s1 [2-Mercaptobenzothiazole] | Inact.
4 | Clc1ccc(COC(Cn2ccnc2)c2ccc(Cl)cc2Cl)cc1 (stereo not drawn) [Econazole nitrate] | Inact.
5 | [N-]=[N+]=CC(=O)OC[C@H](N)C(=O)O [Azaserine] | Inact.
6 | Nc1[nH]c(=O)ncc1F [Flucytosine] | Inact.

same assay, conditions: Table S1; Inact. = no significant activity at the highest compound concentration (46 µM)

Row | SMILES | SH-SY5Y IC50
7 | O=P(O)(O)OC(Cn1cncn1)(Cn1cncn1)c1ccc(F)cc1F [Fosfluconazole] | Inact.
8 | Cc1cccc(N(C)C(=S)Oc2ccc3c(c2)CCC3)c1 [Tolindate] | Inact.
9 | Sc1nc2ccccc2s1 [2-Mercaptobenzothiazole] | Inact.
10 | [N-]=[N+]=CC(=O)OC[C@H](N)C(=O)O [Azaserine] | Inact.
11 | Nc1[nH]c(=O)ncc1F [Flucytosine] | Inact.

tested on: E. rostratum conidia; test: conidia growth inhibition ATP content assay (RPMI, 1536-well); format: cell-based, Exserohilum rostratum; conditions: Exserohilum rostratum; Table S1; 46 µM Amphotericin B = 100%; Inact. = no significant activity at 46 µM; read-out: Conidia % M. Res.
Method: (§2) Conidia and hyphae of E. rostratum were obtained as described by Richard et al., with the following modifications. Briefly, conidia were harvested from Potato Dextrose Agar (PDA) cultured media with 0.05% Tween 80, and the conidial suspension was filtered using a Cell Strainer (100 µm, BD Falcon REF 352340). After centrifugation at 700g for 10 min, the suspension was decanted and conidia were resuspended at 1×10^5 per ml in RPMI and counted in a hemocytometer. Hyphae were harvested from yeast extract peptone dextrose (YPD) culture media with 0.05% Tween 80. Hyphal fragments were sized by vortexing 15 sec twice with 0.4 mm glassbeads, and the hyphae suspension was filtered by cheese cloth twice. […] To normalize concentrations of hyphal fragments for batch to batch consistency, carbohydrate analysis was performed by a phenol-sulfuric acid method as previously described. The final stock concentration of hyphae was adjusted to 1.0 (OD490) per 100 µl.
as §1
(§3) The LOPAC library (Sigma-Aldrich) has been extensively used for HTS assay validations, [18]. The NIH Chemical Genomics Center Pharmaceutical (NPC) collection was constructed in-house through a combined effort of compound purchasing and custom synthesis and recently expanded to 4096 compounds. […] 2.5 µl/well PBS was dispensed into 1536-well plates using a Multidrop-Combi dispenser. Compound in DMSO solution was transferred in a volume of 23 nl/well using a NX-TR pintool station (WAKO Scientific Solutions, San Diego, CA). This additional PBS step for compound addition was designed to prevent the potential fungal contamination of compound libraries. The hyphal fragments in PBS were then added at 2.5 µl/well for a final seeding density of 15,000 hyphal fragments/well using the Multidrop-Combi dispenser. The final compound concentration was 46 µM in the primary screen. The assay plates were incubated for 24 h at 30°C before the detection of cellular viability with the ATP content assay. Screen of conidia was performed in a similar way except that PBS was replaced with RPMI medium and conidia were plated for a final seeding density of 250 conidia/well.
(§4) The primary screen data and curve fitting were analyzed using software developed internally at the NIH Chemical Genomics Center (NCGC). Total signals for cellular viability (100% cellular viability) were calculated from the wells with DMSO solvent and the complete cell killing (0% cellular viability) was calculated from 46 µM amphotericin B treated wells. […] All values were expressed as the mean +/− SD (n≥3).

Row | SMILES | Emax
12 | Clc1ccc(COC(Cn2ccnc2)c2ccc(Cl)cc2Cl)cc1 (stereo not drawn) [Econazole nitrate] | 64%

same assay, conditions: Table S1; 46 µM Amphotericin B = 100%; Inact. = no significant activity at 46 µM

Row | SMILES | Conidia % M. Res.
13 | O=P(O)(O)OC(Cn1cncn1)(Cn1cncn1)c1ccc(F)cc1F [Fosfluconazole] | Inact.
14 | Cc1cccc(N(C)C(=S)Oc2ccc3c(c2)CCC3)c1 [Tolindate] | Inact.
15 | Sc1nc2ccccc2s1 [2-Mercaptobenzothiazole] | Inact.
16 | [N-]=[N+]=CC(=O)OC[C@H](N)C(=O)O [Azaserine] | Inact.
17 | Nc1[nH]c(=O)ncc1F [Flucytosine] | Inact.

same assay, conditions: Table S1; Inact. = no significant activity at the highest compound concentration (46 µM)

Row | SMILES | Conidia IC50
18 | O=P(O)(O)OC(Cn1cncn1)(Cn1cncn1)c1ccc(F)cc1F [Fosfluconazole] | Inact.
19 | Cc1cccc(N(C)C(=S)Oc2ccc3c(c2)CCC3)c1 [Tolindate] | Inact.
20 | Sc1nc2ccccc2s1 [2-Mercaptobenzothiazole] | Inact.
21 | [N-]=[N+]=CC(=O)OC[C@H](N)C(=O)O [Azaserine] | Inact.
22 | Nc1[nH]c(=O)ncc1F [Flucytosine] | Inact.

tested on: E. rostratum hyphal fragments; test: hyphal fragment fungicidal ATP content assay (PBS, 1536-well); format: cell-based, Exserohilum rostratum; conditions: Exserohilum rostratum; Table S1; 46 µM Amphotericin B = 100%; Inact. = no significant activity in the primary screen; read-out: Hyphae % M. Res.
Method: as §2, §1, §3, §4

Row | SMILES | Emax
23 | Clc1ccc(COC(Cn2ccnc2)c2ccc(Cl)cc2Cl)cc1 (stereo not drawn) [Econazole nitrate] | 77%

same assay, conditions: Table S1; 46 µM Amphotericin B = 100%; Inact. = no significant activity in the primary screen

Row | SMILES | Hyphae % M. Res.
24 | O=P(O)(O)OC(Cn1cncn1)(Cn1cncn1)c1ccc(F)cc1F [Fosfluconazole] | Inact.
25 | Cc1cccc(N(C)C(=S)Oc2ccc3c(c2)CCC3)c1 [Tolindate] | Inact.
26 | Sc1nc2ccccc2s1 [2-Mercaptobenzothiazole] | Inact.
27 | [N-]=[N+]=CC(=O)OC[C@H](N)C(=O)O [Azaserine] | Inact.
28 | Nc1[nH]c(=O)ncc1F [Flucytosine] | Inact.

same assay, conditions: Table S1; Inact. = no significant activity in the primary screen

Row | SMILES | Hyphae IC50
29 | O=P(O)(O)OC(Cn1cncn1)(Cn1cncn1)c1ccc(F)cc1F [Fosfluconazole] | Inact.
30 | Cc1cccc(N(C)C(=S)Oc2ccc3c(c2)CCC3)c1 [Tolindate] | Inact.
31 | Sc1nc2ccccc2s1 [2-Mercaptobenzothiazole] | Inact.
32 | [N-]=[N+]=CC(=O)OC[C@H](N)C(=O)O [Azaserine] | Inact.
33 | Nc1[nH]c(=O)ncc1F [Flucytosine] | Inact.
